The source made the active and inactive calls.
Tests used:
[1] = target: T1, Calpain-2 catalytic subunit (Sus scrofa, UniProt P43367); experiment: m-calpain protease blockers, concentration series – biochemical, fluorogenic peptide substrate, dose response (AID 1420); assay type: functional
T1 sequence (P43367 whole entry): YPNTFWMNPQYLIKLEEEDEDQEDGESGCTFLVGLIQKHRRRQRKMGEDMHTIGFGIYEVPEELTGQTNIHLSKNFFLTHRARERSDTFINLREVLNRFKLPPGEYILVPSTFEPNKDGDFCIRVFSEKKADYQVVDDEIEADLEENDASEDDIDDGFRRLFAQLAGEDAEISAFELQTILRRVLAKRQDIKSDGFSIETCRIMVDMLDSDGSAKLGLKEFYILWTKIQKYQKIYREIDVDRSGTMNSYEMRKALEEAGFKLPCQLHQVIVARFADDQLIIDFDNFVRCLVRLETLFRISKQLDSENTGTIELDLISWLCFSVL

Cytochrome P450 2D6 = Cytochrome P450 2D6 (Homo sapiens, UniProt P10635);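 also: CYP2D6 member of a cytochrome P450 panel assay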
Chain of Cytochrome P450 2D6 (P10635 whole entry): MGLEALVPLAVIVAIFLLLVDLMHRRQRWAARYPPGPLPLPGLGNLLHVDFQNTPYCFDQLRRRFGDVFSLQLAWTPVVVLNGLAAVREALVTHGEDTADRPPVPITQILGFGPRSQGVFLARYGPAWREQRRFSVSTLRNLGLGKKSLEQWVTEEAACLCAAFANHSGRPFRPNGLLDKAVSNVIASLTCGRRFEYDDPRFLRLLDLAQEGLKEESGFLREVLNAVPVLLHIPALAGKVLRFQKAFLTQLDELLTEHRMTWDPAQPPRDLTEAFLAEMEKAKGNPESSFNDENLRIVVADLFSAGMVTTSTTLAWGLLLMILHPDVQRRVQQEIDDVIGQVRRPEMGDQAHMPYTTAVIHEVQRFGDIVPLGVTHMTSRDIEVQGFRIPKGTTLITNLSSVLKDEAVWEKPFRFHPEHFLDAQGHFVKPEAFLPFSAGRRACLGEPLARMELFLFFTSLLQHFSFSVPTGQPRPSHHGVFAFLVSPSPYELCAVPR

Cytochrome P450 2C9 = Cytochrome P450 2C9 (Homo sapiens, UniProt P11712)
Chain of Cytochrome P450 2C9 (P11712 whole entry): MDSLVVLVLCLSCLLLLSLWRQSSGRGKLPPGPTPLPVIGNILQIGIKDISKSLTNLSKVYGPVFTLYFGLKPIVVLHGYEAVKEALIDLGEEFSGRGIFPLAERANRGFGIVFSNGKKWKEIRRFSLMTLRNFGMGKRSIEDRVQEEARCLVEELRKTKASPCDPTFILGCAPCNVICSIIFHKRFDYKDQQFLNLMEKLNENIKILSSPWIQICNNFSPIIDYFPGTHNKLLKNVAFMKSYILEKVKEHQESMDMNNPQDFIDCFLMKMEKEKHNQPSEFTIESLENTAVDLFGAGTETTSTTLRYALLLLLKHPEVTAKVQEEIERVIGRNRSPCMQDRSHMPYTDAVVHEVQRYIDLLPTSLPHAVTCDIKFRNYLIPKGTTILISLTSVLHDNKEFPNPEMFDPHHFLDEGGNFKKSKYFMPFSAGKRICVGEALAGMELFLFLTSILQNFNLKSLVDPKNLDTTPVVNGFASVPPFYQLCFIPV

P388/ADR = experiment: cells; assay type: functional; conditions: Mus musculus
SN12K1 = experiment: cells; assay type: functional; conditions: Homo sapiens
P388 = experiment: cells; assay type: functional; conditions: Mus musculus
Streptococcus = experiment: GAS UMAA2166 growth inhibition – luminescence, BacTiterGlo, counter-screen for streptokinase expression inhibitor project, dose response (AID 1915); assay type: functional, organism-based;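 also: potency for reduction of bacterial viability or growth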
[2] = tested on: Streptococcus sp. 'group A'; experiment: Streptococcus pyogenes SK(-)GAS viability under kanamycin – luminescence, BacTiterGlo, confirmation, counter-screen for streptokinase expression inhibitor project, dose response (AID 1900); assay type: functional, organism-based
[3] = NIH-3T3 fibroblast cytotoxicity, dose response, cytotoxicity control, cell-based, fluorescence, Alamar Blue, secondary assay (AID 2327); assay type: functional;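 also: NIH-3T3 mouse fibroblasts cultured with fluconazole at 8 µg/mL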
Cytochrome P450 3A4 = Cytochrome P450 3A4 (Homo sapiens, UniProt P08684);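 also: CYP3A4 tested as one member of a cytochrome P450 panel screen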
Chain of Cytochrome P450 3A4 (P08684 whole entry): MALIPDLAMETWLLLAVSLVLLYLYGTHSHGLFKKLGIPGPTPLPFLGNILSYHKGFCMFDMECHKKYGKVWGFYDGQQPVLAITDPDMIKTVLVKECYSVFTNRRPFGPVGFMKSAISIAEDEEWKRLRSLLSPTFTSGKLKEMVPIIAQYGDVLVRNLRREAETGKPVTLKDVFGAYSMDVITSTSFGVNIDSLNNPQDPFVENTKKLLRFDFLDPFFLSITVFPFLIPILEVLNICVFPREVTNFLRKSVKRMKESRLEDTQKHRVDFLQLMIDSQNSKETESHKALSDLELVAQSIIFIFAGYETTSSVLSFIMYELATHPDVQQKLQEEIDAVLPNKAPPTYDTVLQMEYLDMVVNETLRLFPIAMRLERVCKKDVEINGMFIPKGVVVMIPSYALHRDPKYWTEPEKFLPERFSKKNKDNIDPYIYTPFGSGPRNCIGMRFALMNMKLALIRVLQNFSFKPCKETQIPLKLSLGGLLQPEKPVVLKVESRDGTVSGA

H9c2 = experiment: cells; assay type: functional, cell-based; conditions: Rattus norvegicus, H9c2, Myocardium;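 also: confirmatory concentration-response retest of ultra-high-throughput screening hits for modulation of myocardial damage; cell death induced by hydrogen peroxide oxidative stress; compound pretreatment for 60 min then peroxide exposure for 2 h; potency is for protecting the cells against peroxide damage rather than for killing them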
Cytochrome P450 1A2 = target: T2, Cytochrome P450 1A2 (Homo sapiens, UniProt P05177);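 also: PubChem cytochrome P450 panel assay, CYP1A2 panel member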
T2 sequence (P05177 whole entry): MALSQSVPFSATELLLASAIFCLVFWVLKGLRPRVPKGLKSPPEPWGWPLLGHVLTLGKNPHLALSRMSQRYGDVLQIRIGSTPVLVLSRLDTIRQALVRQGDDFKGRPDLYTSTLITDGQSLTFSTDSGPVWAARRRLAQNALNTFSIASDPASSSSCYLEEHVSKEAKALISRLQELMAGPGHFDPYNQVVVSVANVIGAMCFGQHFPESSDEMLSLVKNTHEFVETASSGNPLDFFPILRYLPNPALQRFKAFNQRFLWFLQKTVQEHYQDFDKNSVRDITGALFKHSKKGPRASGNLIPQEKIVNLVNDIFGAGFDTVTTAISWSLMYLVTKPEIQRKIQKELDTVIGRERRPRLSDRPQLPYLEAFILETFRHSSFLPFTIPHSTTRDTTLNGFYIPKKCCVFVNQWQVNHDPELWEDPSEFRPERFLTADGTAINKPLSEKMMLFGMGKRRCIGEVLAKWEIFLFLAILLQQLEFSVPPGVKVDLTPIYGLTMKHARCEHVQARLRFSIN

[4] = HIV-1 AD8 envelope cell-cell fusion blockers – cherry-pick, dose response (AID 652062); assay type: functional, cell-based;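 also: luciferase signal from cell-cell fusion driven by HIV-1 clade B AD8 Env; potency is for inhibitors of fusion seen as a drop in luminescence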
[5] = blockers of HIV-1 envelope-mediated cell-cell fusion – cherry-pick, dose response (AID 652057); assay type: functional, cell-based
INS1 = experiment: INS-1E survival protection against cytokine death – cell-based, luminescence, retest, dose response (AID 449756); assay type: functional; conditions: Rattus norvegicus;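 also: cell death triggered by IL-1 beta plus TNF-alpha plus IFN-gamma mixture; protective hits raise ATP signal compared with cytokine alone wells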
[6] = viability of HCT116 lacking mutant beta-catenin – cell-based, human colon tumor, dose response (AID 1045); assay type: functional;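 also: HCT116 colon tumor cells with beta catenin knocked out; cells exposed to compound for 60 hours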
Cytochrome P450 2C19 = Cytochrome P450 2C19 (Homo sapiens, UniProt P33261); experiment: Cytochrome panel assay with activity outcomes. Panel member name: p450-cyp2c19 Compounds with AC50 equal or less than 10 uM are considered active; assay type: functional
Chain of Cytochrome P450 2C19 (P33261 whole entry): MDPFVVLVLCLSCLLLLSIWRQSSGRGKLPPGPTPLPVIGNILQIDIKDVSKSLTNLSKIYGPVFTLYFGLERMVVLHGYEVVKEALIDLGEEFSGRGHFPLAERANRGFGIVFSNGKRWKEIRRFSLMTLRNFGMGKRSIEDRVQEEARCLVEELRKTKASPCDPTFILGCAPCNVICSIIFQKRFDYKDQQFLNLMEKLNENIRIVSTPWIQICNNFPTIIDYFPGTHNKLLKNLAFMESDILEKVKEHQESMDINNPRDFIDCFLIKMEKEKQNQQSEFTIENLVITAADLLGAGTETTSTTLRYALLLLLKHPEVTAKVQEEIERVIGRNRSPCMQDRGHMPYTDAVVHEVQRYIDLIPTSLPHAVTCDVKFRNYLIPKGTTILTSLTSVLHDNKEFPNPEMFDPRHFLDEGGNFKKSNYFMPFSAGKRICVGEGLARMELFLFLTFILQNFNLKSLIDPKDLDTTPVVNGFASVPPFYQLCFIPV

[7] = viability of PTEN-deleted HCT116 cells – cell-based, HCT116 PTEN knockout, dose response (AID 1047); assay type: functional;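 also: HCT116 colon tumor cells with PTEN knocked out; cells exposed to compound for 60 hours before readout; potency for loss of cell viability measured by luminescence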

Compound | GI50 (P388/ADR) | GI50 (SN12K1) | GI50 (P388) | other results
O=C(NCC(=O)N(c1ccc(F)cc1)C(C(=O)NC1CCCC1)c1cccnc1)c1cccs1 (stereo unspecified) | – | – | – | IC50 [1]: < 0.4 µM (not active)
COc1cccc(CNc2ccc([N+](=O)[O-])c(NCC(=O)O)n2)c1 | – | – | – | IC50 [1]: 5.38 µM (active)
CC(=O)N1c2c(cc(Br)cc2S(=O)(=O)NCC2COc3ccccc3O2)CC1C (stereo unspecified) | – | – | – | AC50 (Cytochrome P450 2D6): 17.8 µM (inconclusive); AC50 (Cytochrome P450 2C9): inconclusive
CN(C(=O)c1ccc(OCCCC(=O)O)c(Cl)c1Cl)C1CCCC1 | > 100 µM (inactive) | > 89.5 µM (inactive) | > 100 µM (inactive) | –
CCCCCCCCCCCC1=C(O)C(=O)C=C(O)C1=O [EMBELIN] | 9.66 µM (inactive) | 3.74 µM (inactive) | 1.78 µM (inactive) | EC50 (Streptococcus): 3.32 µM (active); EC50 [2]: 1.58 µM (active); EC50 [3]: 5.02 µM (inconclusive)
C#CC[C@@]12CC(=O)C[C@@H]1CCC1(C2)OCCO1.C#CC[C@]12CC(=O)CC[C@H]1CC(=O)C2 | 36.6 µM (inactive) | > 100 µM (inactive) | 23.7 µM (inactive) | –
COc1cc(-c2nnc(-c3ccc(N4CCOCC4)cc3)o2)cc(OC)c1OC | – | – | – | AC50 (Cytochrome P450 3A4): 7.94 µM (inconclusive); IC50 (H9c2): > 79 µM (inactive); AC50 (Cytochrome P450 2C9): inconclusive
CC(=O)NCCCCCCNC(C)=O [HEXAMETHYLENEBISACETAMIDE] | 3520 µM (inactive) | 9930 µM (inactive) | 4260 µM (inactive) | –
Cc1c(N=NN(C)C)cc[n+]([O-])c1C | > 100 µM (inactive) | > 100 µM (inactive) | > 100 µM (inactive) | –
CCCc1cc(-c2nnc(S)n2CC(C)C)cs1 | – | – | – | IC50 [1]: > 50 µM (not active)
CCCN(CCC)C[C@@H]1CCCCN1CCNC(=O)N1c2ccccc2C(=O)Nc2cccnc21 | – | – | – | AC50 (Cytochrome P450 1A2): 25.1 µM (inconclusive); AC50 (Cytochrome P450 3A4): 15.8 µM (inconclusive); AC50 (Cytochrome P450 2C9): inconclusive
O=c1cnn(C2OC(CO)C(O)C2O)c(=S)[nH]1 (stereo unspecified) | 0.933 µM (active) | 3.06 µM (inactive) | 1.92 µM (inactive) | –
Cc1noc(C)c1COC(=O)CNC(=O)c1cccc(F)c1 | – | – | – | IC50 [1]: > 50 µM (not active)
CSc1nc2c(ncn2C2OCC(O)C(O)C2O)c(=O)n1C (stereo unspecified) | > 100 µM (inactive) | > 100 µM (inactive) | > 100 µM (inactive) | –
CCOC(=O)c1ccc(N[C@@H]2c3cc4c(cc3C(c3cc(OC)c(O)c(OC)c3)[C@H]3C(=O)OCC32)OCO4)cc1 (stereo partly specified) | 0.0256 µM (active) | < 0.01 µM (active) | < 0.01 µM (active) | –
CCOC(=O)c1sc(SCC(=O)Nc2ccc(N(C)C)cc2)nc1N | – | – | – | IC50 [1]: 30.7 µM (not active)
Cc1ccc(NCC(=O)N/N=C/c2c[nH]c3ccccc23)cc1 | – | – | – | IC50 [1]: 16.1 µM (not active)
COc1cc(C2c3cc4c(cc3[C@@H](Nc3ccc(N5CCOCC5)cc3)C3COC(=O)[C@H]23)OCO4)cc(OC)c1O (stereo partly specified) | 0.0735 µM (active) | 1 µM (active) | < 0.01 µM (active) | –
C[C@H](C(=O)N(C)C[C@@H]1OCc2ccccc2-c2ccccc2C(=O)N([C@@H](C)CO)C[C@@H]1C)c1ccccc1 | – | – | – | AC50 [4]: < 0.26 µM (active); AC50 [5]: < 0.26 µM (active)
O=C(O)Cc1nn(Cc2ccc(Br)cc2F)c(=O)c2ccccc12 [PONALRESTAT] | – | – | – | AC50 (Cytochrome P450 1A2): 31.6 µM (inconclusive); AC50 (Cytochrome P450 2C9): inconclusive
C[C@@H]1CN([C@@H](C)CO)C(=O)c2cccc(NC(=O)C3CCCCC3)c2O[C@H]1CN(C)CC1CCCCC1 | – | – | – | AC50 [4]: 67.1 µM (active); AC50 [5]: 3.12 µM (active)
CNc1nc(-c2ccccc2Cl)nc2ccccc12 | – | – | – | AC50 (Cytochrome P450 2D6): 39.8 µM (inconclusive); AC50 (Cytochrome P450 2C9): inconclusive

Compound | GI50 (P388/ADR) | GI50 (SN12K1) | GI50 (P388) | other results
Cc1cccc(OCCC(=O)Nc2ccc(C)c(S(=O)(=O)N3CCCCC3)c2)c1 | – | – | – | IC50 [1]: 5.33 µM (not active)
N/C(=N\O)N/N=C\c1cc([N+](=O)[O-])cc([N+](=O)[O-])c1O | 7.59 µM (inactive) | 0.743 µM (active) | 2.3 µM (inactive) | –
C[C@H](CO)N1C[C@H](C)[C@H](CN(C)S(=O)(=O)c2cccs2)Oc2ccc(NC(=O)C3CCCCC3)cc2CC1=O | – | – | – | AC50 [4]: 5.23 µM (active); AC50 [5]: 0.436 µM (active)
COc1cc(C2c3cc4c(cc3[C@@H](Nc3cccc(C(C)=O)c3)C3COC(=O)[C@H]23)OCO4)cc(OC)c1O (stereo partly specified) | 0.124 µM (active) | < 0.0361 µM (active) | < 0.01 µM (active) | –
O=C(Nc1ccccc1N1CCOCC1)c1ccccc1[N+](=O)[O-] | – | – | – | AC50 (Cytochrome P450 1A2): 12.6 µM (inconclusive); AC50 (Cytochrome P450 2C9): inconclusive
CCOc1ccc(OCc2ccc(C(=O)N3CCCC(C)C3)cc2)cc1 (stereo unspecified) | – | – | – | IC50 [1]: 10.5 µM (active)
ClCc1nnc2n1-c1ccc(Cl)cc1SC2 | 1.66 µM (inactive) | 2.83 µM (inactive) | 0.927 µM (active) | –
COc1ccc2cc1Oc1ccc(cc1)C[C@H]1c3cc(c(OC)cc3CCN1C)Oc1c(O)c(OC)cc3c1[C@H](C2)N(C)CC3 [FANGCHINOLINE] | 2.58 µM (inactive) | 18.3 µM (inactive) | 2 µM (inactive) | AC50 (INS1): 5.84 µM (active)
O=C(NC(c1ccccc1)C(O)C(=O)OCc1ccc2c(c1)C(=O)c1ccccc1C2=O)c1ccccc1 (stereo unspecified) | 33.8 µM (inactive) | 1.84 µM (inactive) | 90.2 µM (inactive) | –
C/C([O-])=C(/c1nc(-c2ccc([N+](=O)[O-])o2)no1)[n+]1cc(C)ccc1C | > 100 µM (inactive) | 13.4 µM (inactive) | 54.8 µM (inactive) | –
C=C/C(C)=C/[C@H](C)C(=O)C[C@H](O)CC1CC(=O)NC(=O)C1 | 27.2 µM (inactive) | 35.5 µM (inactive) | 9.86 µM (inactive) | –
O=NN(CCCl)C(=O)N[C@H]1CC[C@@H](C(=O)O)CC1 | 5.26 µM (inactive) | 98.6 µM (inactive) | 5.14 µM (inactive) | –
Cc1ccc(CNc2nc(Cl)c(C#N)s2)cc1 | – | – | – | IC50 [1]: 4.33 µM (not active)
C[C@H](CO)N1C[C@H](C)[C@H](CN(C)S(=O)(=O)c2ccc(F)cc2)Oc2ccc(NS(=O)(=O)c3ccccc3)cc2CC1=O | – | – | – | AC50 [4]: 28.2 µM (active); AC50 [5]: 16.8 µM (active)
CCOC(=O)C1=C(c2ccccc2)N=c2s/c(=C\c3ccc(O)cc3)c(=O)n2C1c1cccs1 (stereo unspecified) | – | – | – | EC50 [6]: 17.9 µM (active); AC50 (Cytochrome P450 2C19; read-out: AC50): 3.98 µM (inconclusive); EC50 [7]: 19.7 µM (active); AC50 (Cytochrome P450 2C9): inconclusive
O=C1c2cccc([N+](=O)[O-])c2C(=O)N1c1ncn[nH]1 | – | – | – | AC50 (Cytochrome P450 1A2): 3.16 µM (inconclusive); AC50 (Cytochrome P450 3A4): 3.98 µM (inconclusive); AC50 (Cytochrome P450 2C19): inconclusive; AC50 (Cytochrome P450 2C9): inconclusive
CSc1ncccc1C(=O)OCC(=O)Nc1ccc2c(c1)OCO2 | – | – | – | IC50 [1]: < 0.4 µM (not active)
CNC(=O)OCc1nc(SSC(C)(C)C)n(C)c1COC(=O)NC | 2.47 µM (inactive) | 5.13 µM (inactive) | 1.12 µM (inactive) | –
COc1ccc(Oc2ncc3nc(-c4cn(C)c5ccccc45)c(=O)n(CCC#N)c3n2)cc1 | – | – | – | AC50 (Cytochrome P450 1A2): 2 µM (inconclusive); AC50 (Cytochrome P450 2C9): inconclusive
CO[C@H]1C[C@](C)(O)Cc2cc3c(c(O)c21)C(=O)c1c(O)cc2c(c1C3=O)O[C@@H]1O[C@@]2(C)[C@H](O)[C@@H](N(C)C)[C@@H]1O | 1.21 µM (inactive) | 0.0736 µM (active) | 0.054 µM (active) | –
CCOC(=O)C(N)CSC(=O)NC (stereo unspecified) | 12.3 µM (inactive) | 44.1 µM (inactive) | 30.1 µM (inactive) | –
